Experimental data: patent publication US11192967B1, “Thermosetting polyimides derived from resveratrol” (The United States of America, as represented by the …, priority 2017, dated 2021)
Read-outs that look alike come from different tables or passages of the source.

Legend:
Mutagenicity (Ames test) = assay type: cell-based
Experimental: (§1) Toxicity Testing. In vitro toxicity tests were conducted for compounds 1-3.

Aquatic toxicity = details: for Aquatic toxicity (in words): 1 and 2 compared to MDA
Experimental: as §1

LD50 (toxicity testing) = details: listed among in vitro toxicity test results
In vitro cytotoxicity = assay type: cell-based; details: concentration at which cytotoxicity was observed; solubility limit 10 μg/mL for 3
Experimental: as §1

| SMILES | Mutagenicity (Ames test) (Mutagenicity (Ames test)) | Aquatic Toxicity (Aquatic toxicity) | LD50 (LD50 (toxicity testing)) | Cytotoxicity (In vitro cytotoxicity) | Aquatic toxicity (in words) (Aquatic toxicity) | LD50 (LD50 (toxicity testing); read-out: LD50) | Mutagenicity (Ames test) (Mutagenicity (Ames test); listed as Compound 3) |
| --- | --- | --- | --- | --- | --- | --- | --- |
| Nc1ccc(Cc2ccc(N)cc2)cc1 [MDA, Methylene dianiline, reference compound] | Mutagenic | 14.30 mg/L | 944 mg/kg | – | – | – | – |
| Nc1ccc(/C=C/c2cc(N)cc(N)c2)cc1 [compound 1, (E)-5-(4-aminostyryl)benzene-1,3-diamine] | Mutagenic | 1153 mg/L | – | >/=3.2 μg/mL | substantially reduced aquatic toxicity compared to MDA | 301 mg/kg | – |
| Nc1ccc(CCc2cc(N)cc(N)c2)cc1 [compound 2] | Mutagenic | 52.7 mg/L | – | >/=3.2 μg/mL | substantially reduced aquatic toxicity compared to MDA | 820 mg/kg | – |
| Nc1ccc(Oc2ccc(CCc3cc(Oc4ccc(N)cc4)cc(Oc4ccc(N)cc4)c3)cc2)cc1 [compound 3] | Not mutagenic | >2000 mg/L | – | None observed | remarkably low aquatic toxicity | 568 mg/kg | not mutagenic |
